# According to patent US11827628B2, “Compositions and methods for inhibition of the JAK pathway” (Rigel Pharmaceuticals, Inc., priority 2005, dated 2023):
# Tested on: up-regulation of ICAM-1 (CD54) by IFNγ in A549 lung epithelial cells
# Experiment: A549 Epithelial Line Stimulated with IFNγ (ICAM-1 surface expression, FACS)
# Format: cell-based, human
# Conditions: A549 epithelial line stimulated with IFNγ; ICAM-1 expression by FACS; read-out: IC50, Example 43
# Outline: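 ICAM-1 (CD54) flow cytometry on live-gated A549 cells, geometric mean versus dose giving EC50. Cells received IFNγ at 75 ng/mL for 24 h after a 1 h compound pre-treatment spanning 30 μM to 14 nM in medium with 5% FBS and 0.3% DMSO.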
row,SMILES,IC50
1,"Cc1noc(COc2ccc(Nc3nc(Nc4ccc(S(N)(=O)=O)cc4)ncc3F)cc2)n1 [Compound I-268, N2-(4-Aminosulfonylphenyl)-5-fluoro-N4-(4-[3-methyl-1,2,4-oxadiazol-5-yl]methyleneoxyphenyl)-2,4-pyrimidinediamine]",5.08 µM
2,"Cc1noc(COc2cccc(Nc3nc(Nc4ccc(C)c(S(N)(=O)=O)c4)ncc3F)c2)n1 [Compound I-254, N2-(3-Aminosulfonyl-4-methylphenyl)-5-fluoro-N4-[3-(3-methyl-1,2,4-oxadiazol-5-yl)methyleneoxyphenyl]-2,4-pyrimidinediamine]",8.96 µM
3,"Cc1noc(COc2ccc(Nc3nc(Nc4cccc(S(=O)(=O)NCc5oc(=O)oc5C)c4)ncc3F)cc2)n1 [Compound I-257, N2-{3-[(N-5-Methyl-1,3-dioxolene-2-one-4-yl)methylene]aminosulfonylphenyl}-5-fluoro-N4-[4-(3-methyl-1,2,4-oxadiazol-5-yl)methyleneoxyphenyl]-2,4-pyrimidinediamine]",3.08 µM
4,"CCN(CC)CCNS(=O)(=O)c1ccc(Nc2ncc(F)c(Nc3ccc(OCc4cc(C)on4)cc3)n2)cc1 [Compound I-246, N2-[4-(2-N,N-Diethylaminoethyl)aminosulfonylphenyl)-5-fluoro-N4-[4-(5-methylisoxazol-3-yl)methyleneoxyphenyl]-2,4-pyrimidinediamine]",8.88 µM
5,"Cc1ccc(Nc2ncc(F)c(Nc3ccc(CC#N)cc3)n2)cc1S(N)(=O)=O [III-7, N2-(3-Aminosulfonyl-4-methyl)phenyl-N4-(4-cyanomethyl)phenyl-5-fluoro-2,4-pyrimidinediamine]",12.3 µM

# The remaining lines, values ahead:
row,IC50,SMILES
1,23.6 µM,"COc1cc(Nc2ncc(F)c(Nc3ccc(CC#N)cc3)n2)ccc1S(N)(=O)=O [III-9, N2-(4-Aminosulfonyl-3-methoxy)phenyl-N4-(4-cyanomethyl)phenyl-5-fluoro-2,4-pyrimidinediamine]"
2,5.5 µM,"COc1cc(Nc2ncc(F)c(Nc3cc(C)c(OCC#N)c(C)c3)n2)ccc1S(N)(=O)=O [Compound I-32, N2-(4-Aminosulfonyl-3-methoxy)phenyl-N4-(4-cyanomethoxy-3,5-dimethyl)phenyl-5-fluoro-2,4-pyrimidinediamine]"
